Results from ChEMBL document CHEMBL2074425, “Characterization of the 5'-flanking region of the human multidrug resistance protein 2 (MRP2) gene and its regulation in comparison withthe multidrug resistance protein 3 (MRP3) gene” (Eur J Biochem, 2000).

How the values were obtained:
[1] = molecular target: Multidrug resistance associated protein (Homo sapiens) (UniProt Q96QA9); assay: (§1) TP_TRANSPORTER: reporter gene activity in promoter constructs in HepG2 cells; assay type: functional, cell-based
[2] = molecular target: ATP-binding cassette sub-family C member 2 (Homo sapiens, UniProt Q92887); assay: as §1; assay type: functional, cell-based
Chain of ATP-binding cassette sub-family C member 2 (Q92887 whole entry): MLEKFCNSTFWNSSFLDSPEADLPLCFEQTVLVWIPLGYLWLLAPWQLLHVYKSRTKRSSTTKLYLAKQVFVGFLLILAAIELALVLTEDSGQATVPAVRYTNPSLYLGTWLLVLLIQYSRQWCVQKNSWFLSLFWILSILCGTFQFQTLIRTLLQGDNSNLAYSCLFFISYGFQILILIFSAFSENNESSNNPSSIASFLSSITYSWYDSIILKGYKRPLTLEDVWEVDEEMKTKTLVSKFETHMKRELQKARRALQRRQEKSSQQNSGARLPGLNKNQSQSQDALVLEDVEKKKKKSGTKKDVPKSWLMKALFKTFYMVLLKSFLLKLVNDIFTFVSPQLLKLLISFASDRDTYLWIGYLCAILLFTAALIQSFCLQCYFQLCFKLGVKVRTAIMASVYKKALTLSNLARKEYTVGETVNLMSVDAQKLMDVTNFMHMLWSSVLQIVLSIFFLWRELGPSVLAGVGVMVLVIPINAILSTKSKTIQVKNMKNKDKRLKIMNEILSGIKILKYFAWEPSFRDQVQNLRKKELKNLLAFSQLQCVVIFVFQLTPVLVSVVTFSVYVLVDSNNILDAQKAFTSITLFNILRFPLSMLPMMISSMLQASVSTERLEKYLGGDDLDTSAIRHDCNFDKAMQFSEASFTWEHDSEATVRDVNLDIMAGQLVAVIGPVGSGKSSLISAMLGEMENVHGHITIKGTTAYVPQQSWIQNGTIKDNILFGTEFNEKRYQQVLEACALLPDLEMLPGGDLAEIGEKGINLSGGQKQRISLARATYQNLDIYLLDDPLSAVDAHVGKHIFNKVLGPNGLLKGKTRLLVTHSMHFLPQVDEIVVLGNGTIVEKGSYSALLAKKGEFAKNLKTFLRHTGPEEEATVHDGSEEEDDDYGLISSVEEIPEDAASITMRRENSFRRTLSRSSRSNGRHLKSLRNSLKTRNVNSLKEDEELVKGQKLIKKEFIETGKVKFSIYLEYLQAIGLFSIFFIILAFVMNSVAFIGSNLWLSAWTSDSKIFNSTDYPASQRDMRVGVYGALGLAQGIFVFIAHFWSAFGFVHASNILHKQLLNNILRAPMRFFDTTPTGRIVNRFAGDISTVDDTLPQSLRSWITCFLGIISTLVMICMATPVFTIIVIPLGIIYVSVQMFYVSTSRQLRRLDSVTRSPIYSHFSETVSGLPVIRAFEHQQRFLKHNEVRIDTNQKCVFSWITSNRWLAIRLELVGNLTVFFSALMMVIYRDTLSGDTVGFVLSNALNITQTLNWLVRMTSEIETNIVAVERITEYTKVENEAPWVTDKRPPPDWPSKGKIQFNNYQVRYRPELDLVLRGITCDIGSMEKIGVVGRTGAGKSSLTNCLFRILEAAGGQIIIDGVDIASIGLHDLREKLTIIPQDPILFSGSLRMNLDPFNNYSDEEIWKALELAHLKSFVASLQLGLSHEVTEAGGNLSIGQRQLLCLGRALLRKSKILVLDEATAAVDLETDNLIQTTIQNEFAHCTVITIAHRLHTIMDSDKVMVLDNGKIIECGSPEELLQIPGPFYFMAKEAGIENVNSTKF

Chain of Multidrug resistance associated protein (Homo sapiens) (Q96QA9 as listed by the source): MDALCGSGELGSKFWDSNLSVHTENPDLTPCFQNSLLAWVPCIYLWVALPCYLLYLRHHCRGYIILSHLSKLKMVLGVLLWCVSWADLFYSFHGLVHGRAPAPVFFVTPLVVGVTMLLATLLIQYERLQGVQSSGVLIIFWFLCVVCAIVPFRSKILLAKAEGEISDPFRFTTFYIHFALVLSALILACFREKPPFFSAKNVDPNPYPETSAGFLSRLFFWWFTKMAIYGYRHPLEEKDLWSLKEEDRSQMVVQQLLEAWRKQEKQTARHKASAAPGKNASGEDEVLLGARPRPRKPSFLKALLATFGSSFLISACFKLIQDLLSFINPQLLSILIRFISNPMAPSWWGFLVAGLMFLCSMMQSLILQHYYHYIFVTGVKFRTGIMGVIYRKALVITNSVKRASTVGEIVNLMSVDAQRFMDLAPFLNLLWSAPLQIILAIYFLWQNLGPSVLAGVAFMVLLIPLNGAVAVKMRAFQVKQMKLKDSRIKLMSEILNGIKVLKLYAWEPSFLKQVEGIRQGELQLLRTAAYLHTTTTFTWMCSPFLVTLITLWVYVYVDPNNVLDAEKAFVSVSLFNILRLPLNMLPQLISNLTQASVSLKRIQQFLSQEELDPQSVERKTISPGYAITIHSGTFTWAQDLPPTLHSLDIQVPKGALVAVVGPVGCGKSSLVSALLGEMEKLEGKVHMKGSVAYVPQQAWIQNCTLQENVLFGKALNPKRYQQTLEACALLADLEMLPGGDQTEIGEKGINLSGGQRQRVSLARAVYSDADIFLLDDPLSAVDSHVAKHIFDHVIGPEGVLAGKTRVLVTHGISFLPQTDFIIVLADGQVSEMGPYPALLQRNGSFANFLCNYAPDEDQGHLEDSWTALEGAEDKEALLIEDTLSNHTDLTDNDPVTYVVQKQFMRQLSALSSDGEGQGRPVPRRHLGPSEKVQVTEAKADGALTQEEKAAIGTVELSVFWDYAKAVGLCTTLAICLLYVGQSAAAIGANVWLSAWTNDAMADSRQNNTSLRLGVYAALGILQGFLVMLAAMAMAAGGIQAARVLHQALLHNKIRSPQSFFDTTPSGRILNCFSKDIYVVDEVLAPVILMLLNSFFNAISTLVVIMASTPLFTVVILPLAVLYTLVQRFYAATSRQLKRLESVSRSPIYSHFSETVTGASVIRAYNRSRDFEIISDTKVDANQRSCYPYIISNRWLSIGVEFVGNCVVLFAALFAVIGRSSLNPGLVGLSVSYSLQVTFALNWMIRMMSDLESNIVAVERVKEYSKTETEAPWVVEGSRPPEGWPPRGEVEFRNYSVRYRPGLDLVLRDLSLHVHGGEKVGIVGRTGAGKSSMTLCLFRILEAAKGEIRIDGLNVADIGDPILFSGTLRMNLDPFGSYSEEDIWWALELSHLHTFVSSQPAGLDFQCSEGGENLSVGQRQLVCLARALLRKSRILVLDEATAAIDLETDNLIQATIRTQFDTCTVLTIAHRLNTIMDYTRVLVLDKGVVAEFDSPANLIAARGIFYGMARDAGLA

Activity [1]	SMILES	Activity [2]
inducer [+]	COC(=O)Nc1nc2cc(C(=O)c3cccs3)ccc2[nH]1	
	COC(=O)Nc1nc2ccc(C(=O)c3cccs3)cc2[nH]1 [NOCODAZOLE]	inducer [+]
